{
  "source": "ChEMBL document CHEMBL1141488",
  "about": "“Modifying the glycosidic linkage in digitoxin analogs provides selective cytotoxins” (Bioorg Med Chem Lett, 2008)",
  "key": {"[1]": {"tested_on": "HT-29", "assay": "Cytotoxicity against human HT29 cells", "assay_type": "functional, cell-based"}, "[2]": {"tested_on": "NCI/ADR-RES", "assay": "Cytotoxicity against human NCI/ADR-RES cells", "assay_type": "functional, cell-based"}},
  "data": [
    {"molecule": "C[C@]12CC[C@H](N(OCc3ccccc3)OC3OC[C@H](O)[C@@H](O)[C@@H]3O)C[C@H]1CC[C@@H]1[C@@H]2CC[C@]2(C)[C@@H](C3=CC(=O)OC3)CC[C@]12O", "note": "(stereo partly drawn)", "values": [
      {"measurement": "IC50", "setting": "[1]", "value": "> 1", "unit": "µM"}
    ]},
    {"molecule": "CC(C)ON(OC1OC[C@H](O)[C@@H](O)[C@@H]1O)[C@H]1CC[C@@]2(C)[C@H](CC[C@@H]3[C@@H]2CC[C@]2(C)[C@@H](C4=CC(=O)OC4)CC[C@]32O)C1", "note": "(stereo partly drawn)", "values": [
      {"measurement": "IC50", "setting": "[2]", "value": 0.12, "unit": "µM"}
    ]},
    {"molecule": "CC(C)ON(OC1OC[C@H](O)[C@H](O)[C@@H]1O)[C@H]1CC[C@@]2(C)[C@H](CC[C@@H]3[C@@H]2CC[C@]2(C)[C@@H](C4=CC(=O)OC4)CC[C@]32O)C1", "note": "(stereo partly drawn)", "values": [
      {"measurement": "IC50", "setting": "[2]", "value": 0.11, "unit": "µM"}
    ]}
  ]
}
